The source of these data is PubChem BioAssay (NCI).

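48-hour exposure; five concentrations; linearly interpolated endpoints. GI50 = concentration required for 50% inhibition of growth. Definition used: TGI = concentration required for complete inhibition of growth.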 Where only a bound is given, the exact number is not on record here.

Some test systems named below: OVCAR-3 ovarian; RPMI-8226 leukemia; A549 NSCLC; LOX IMVI melanoma; IGROV1 ovarian; UACC-62 melanoma; PC-3 prostate; DU-145 prostate; RXF 393 renal; MDA-MB-231 breast.
Experiment in all cases: NCI anticancer screen, dose series, 48 h

Take `O=C1CCCC2=C(N1)C(=O)C=CC2=O`: the TGI was 64.4 µM in the experiment with OVCAR-3 ovarian; 60.2 µM in the experiment with RPMI-8226 leukemia; above 78.5 µM in the experiment with A549 NSCLC; above 65.8 µM in the experiment on LOX IMVI melanoma; 57.2 µM with IGROV1 ovarian; 56.7 µM in the experiment with UACC-62 melanoma. In addition, the TGI in the experiment on PC-3 prostate was 29.9 µM; with DU-145 prostate, 31.2 µM; in the experiment on RXF 393 renal, 62.9 µM; in the experiment on MDA-MB-231 breast, 33.5 µM.

Consider `CCCc1cc2cc(-n3nc(C)c4c3CC(C)(C)CC4=O)cc(NC3CCC(O)CC3)c2c(=O)[nH]1` (stereo unspecified), for which the GI50 was 0.58 µM with OVCAR-3 ovarian; 0.465 µM with RPMI-8226 leukemia; 0.215 µM in the experiment with A549 NSCLC; 0.116 µM with LOX IMVI melanoma; 0.134 µM with IGROV1 ovarian; 0.189 µM with UACC-62 melanoma. Also, the GI50 was 0.423 µM in the experiment on PC-3 prostate, 0.0527 µM with DU-145 prostate, 0.113 µM with RXF 393 renal and 0.192 µM in the experiment on MDA-MB-231 breast. Also, the TGI in the experiment with OVCAR-3 ovarian was above 100 µM; with RPMI-8226 leukemia it was 14.9 µM; with A549 NSCLC it was above 100 µM; with LOX IMVI melanoma it was 1.07 µM; in the experiment with IGROV1 ovarian it was above 100 µM; with UACC-62 melanoma it was 5.39 µM. For the same compound, the TGI in the experiment on PC-3 prostate was above 100 µM; in the experiment with DU-145 prostate, above 100 µM; with RXF 393 renal, 2.92 µM; with MDA-MB-231 breast it was 3.76 µM.

Take `CN1CCC[C@@H]1CCO[C@](C)(c1ccccc1)c1ccc(Cl)cc1`: the GI50 with OVCAR-3 ovarian was 7.96 µM; in the experiment with A549 NSCLC it was 7.92 µM; in the experiment on LOX IMVI melanoma, 3.02 µM; with IGROV1 ovarian, 4.16 µM; in the experiment with UACC-62 melanoma, 1.81 µM; in the experiment with PC-3 prostate, 4.58 µM. For the same compound, the GI50 was 12.6 µM in the experiment with DU-145 prostate, 3.48 µM in the experiment with RXF 393 renal and 2.79 µM with MDA-MB-231 breast. Further, the TGI in the experiment on OVCAR-3 ovarian came to 20.8 µM; in the experiment on A549 NSCLC it was 21.7 µM; in the experiment with LOX IMVI melanoma, 14.2 µM; in the experiment on IGROV1 ovarian, 18.1 µM; in the experiment with UACC-62 melanoma, 3.99 µM; with PC-3 prostate, 17 µM. In addition, the TGI in the experiment on DU-145 prostate is 25.2 µM; in the experiment on RXF 393 renal, 13.9 µM; in the experiment on MDA-MB-231 breast it was 13.5 µM.

Take `C#CCN=C(N/N=C/c1ccc([N+](=O)[O-])o1)NS(=O)(=O)c1cc(C)c(Cl)cc1SCC(N)=O`: the GI50 was 24.9 µM in the experiment on OVCAR-3 ovarian; 12.8 µM in the experiment with RPMI-8226 leukemia; 18 µM with A549 NSCLC; 8.14 µM in the experiment with LOX IMVI melanoma; 13.9 µM in the experiment with IGROV1 ovarian; 47.3 µM in the experiment on UACC-62 melanoma. The GI50 in the experiment with PC-3 prostate was 20.4 µM; in the experiment with DU-145 prostate, 11.6 µM; in the experiment on MDA-MB-231 breast, 11.4 µM. For the same compound, the TGI in the experiment on OVCAR-3 ovarian is 41.1 µM; with RPMI-8226 leukemia it was 34.5 µM; in the experiment on A549 NSCLC, 35.3 µM; in the experiment with LOX IMVI melanoma, 35.2 µM; in the experiment on IGROV1 ovarian, 27.2 µM; with UACC-62 melanoma, above 100 µM. The TGI in the experiment with PC-3 prostate was determined as 38.7 µM; with DU-145 prostate, 24.5 µM; in the experiment with MDA-MB-231 breast, 26.4 µM.

`O=c1cc(-c2ccc(Cl)cc2)[nH]c2ncccc12`: the GI50 with OVCAR-3 ovarian is 23.4 µM; with PC-3 prostate, 47.6 µM. In addition, the TGI is 73.8 µM in the experiment on OVCAR-3 ovarian; 95 µM in the experiment with RPMI-8226 leukemia; above 100 µM in the experiment with A549 NSCLC; above 100 µM with LOX IMVI melanoma; above 100 µM in the experiment on IGROV1 ovarian; above 100 µM in the experiment with UACC-62 melanoma. Also, the TGI in the experiment with PC-3 prostate, in the experiment with DU-145 prostate and with MDA-MB-231 breast was above 100 µM each time.

For `CCCCCCCC/C=C/CCCCCCCC1=NC(C)(C)CN1C(C)C`, the GI50 was 1.27 µM in the experiment with OVCAR-3 ovarian; 0.868 µM in the experiment with IGROV1 ovarian; 1.61 µM with UACC-62 melanoma; 1.31 µM with PC-3 prostate; 1.63 µM in the experiment with DU-145 prostate; 1.58 µM with RXF 393 renal. Moreover, the GI50 in the experiment on MDA-MB-231 breast is 1.59 µM. For the same compound, the TGI in the experiment with OVCAR-3 ovarian turned out to be 2.53 µM; with IGROV1 ovarian, 2.14 µM; with UACC-62 melanoma, 3.02 µM; with PC-3 prostate, 2.83 µM; in the experiment with DU-145 prostate it was 2.99 µM; in the experiment on RXF 393 renal it was 3.04 µM. The TGI with MDA-MB-231 breast was 2.97 µM.

With `O=C(O)c1ccc2c(c1Nc1ccccc1)C(=O)c1ccccc1C2=O`, the GI50 is 20.7 µM in the experiment with OVCAR-3 ovarian; 51.2 µM in the experiment on A549 NSCLC; 28.9 µM in the experiment with LOX IMVI melanoma; 16.2 µM in the experiment on IGROV1 ovarian; 35.6 µM in the experiment with UACC-62 melanoma; 54.1 µM in the experiment with PC-3 prostate. Also, the results for the GI50 in the experiment on DU-145 prostate, in the experiment with RXF 393 renal and with MDA-MB-231 breast were 82.8 µM, 26.3 µM and 46.2 µM, respectively. Also, the TGI in the experiment on OVCAR-3 ovarian, in the experiment with A549 NSCLC, with LOX IMVI melanoma, in the experiment with IGROV1 ovarian, with UACC-62 melanoma and in the experiment on PC-3 prostate was above 100 µM throughout. In addition, the TGI with DU-145 prostate, in the experiment on RXF 393 renal and with MDA-MB-231 breast was above 100 µM throughout.

Regarding `COc1ccc(-c2nn(-c3cccc(NC(=O)Nc4ccc(Cl)c(C(F)(F)F)c4)c3)cc2-c2ccncc2)cc1Cl`, the GI50 in the experiment with RPMI-8226 leukemia is 1.43 µM; in the experiment on A549 NSCLC it was 1.98 µM; in the experiment on LOX IMVI melanoma, 2.95 µM; with IGROV1 ovarian it was 3.65 µM; in the experiment with UACC-62 melanoma, 1.93 µM; in the experiment with PC-3 prostate, 1.32 µM. Besides, the figures for the GI50 with DU-145 prostate, in the experiment with RXF 393 renal and in the experiment on MDA-MB-231 breast were 4.47 µM, 1.42 µM and 2.29 µM, respectively. Moreover, the TGI with RPMI-8226 leukemia was 5.29 µM; in the experiment with A549 NSCLC, above 100 µM; with LOX IMVI melanoma, 10.6 µM; in the experiment on IGROV1 ovarian, 29.5 µM; with UACC-62 melanoma it was 5.01 µM; in the experiment with PC-3 prostate, 6.85 µM. Also, the figures for the TGI in the experiment on DU-145 prostate, in the experiment with RXF 393 renal and with MDA-MB-231 breast were above 100 µM, 4.83 µM and 7.35 µM, respectively.

On to `COC(=O)CCC(NC(=O)C(C)NC(=O)COC1C(O)C(OC(=O)CCNc2c3ccccc3nc3cccc([N+](=O)[O-])c23)OC(OCc2ccccc2)C1NC(C)=O)C(N)=O` (stereo unspecified), for which the TGI in the experiment on OVCAR-3 ovarian, in the experiment with A549 NSCLC, with LOX IMVI melanoma, in the experiment with IGROV1 ovarian, in the experiment with UACC-62 melanoma and in the experiment on PC-3 prostate was above 10 µM throughout. The TGI with DU-145 prostate is 7.06 µM; in the experiment on RXF 393 renal it was 8.28 µM; in the experiment on MDA-MB-231 breast, above 10 µM.
